Measurements taken from patent US8987522B2, “Differentiation inducer to brown-like adipocyte of white adipocyte” (Uha Mikakuto Co., Ltd., priority 2012, dated 2015).

What was measured:
mature adipocytes [1] = conditions: Japanese Patent Application No. 2011-145331; cited from earlier work
[2] = test system: human vascular endothelial cells; conditions: Japanese Patent Application No. 2011-118367; cited from earlier work
preadipocytes = conditions: Japanese Patent Application No. 2012-240364; cited from earlier work
[3] = test system: 3T3-L1 cells (mouse-derived preadipocytes); assay: Expression of indicator genes (Cidea, Cox7a1, UCP1) of differentiation induction to brown-like adipocytes, real-time RT-PCR; format: cell-based; conditions: for differentiation induction action to brown-like adipocytes from white adipocytes: 3T3-L1, overall conclusion
Procedure: (§1) In order to evaluate the differentiation induction action to brown-like adipocytes of white adipocytes, the evaluation was carried out using 3T3-L1 cells (mouse-derived preadipocytes). The 3T3-L1 preadipocytes are usually differentiated to white adipocytes through a differentiation induction process to be matured. However, by the differentiation induction to brown-like adipocytes, an expression of Cidea gene, an increase in the expression amount of Cox7a1 gene expressed in mitochondria, an increase in the expression amount of cytochrome c oxidase protein specifically expressed in mitochondria, and an expression enhancement of UCP1 gene, which are hardly observed in white adipocytes, are observed. Then, the differentiation induction to brown-like adipocytes of white adipocytes was confirmed based on the expression amount of each gene of Cidea, Cox7a1, and UCP1.
For samples, two substances of resveratrol and UHA1028 were used. Since the action of the differentiation induction to brown-like adipocytes was not observed in sinapic acid, sinapic acid was not used as a comparison target. Each sample was dissolved in dimethylsulfoxide (DMSO, manufactured by Wako Pure Chemical Industries, Ltd.) with a concentration of 4 mM and 2 mM to be used for a test.
Culture was carried out using “Dulbecco's modified Eagle medium” (DMEM, Product name, manufactured by Sigma-Aldrich Corporation) containing 10% “Foetal Bovine Serum” (FBS, manufactured by Biological industries), 1% “Antibiotic-Antimycotic”, and GIBCO (manufactured by Life Technology Corporation). Adipocytes to be used for the test were prepared in accordance with a usual method.
The test was carried out as follows. 2 mL of 3T3-L1 cells were sowed with a concentration of 5×10^4 cells/mL in a 6 well dish for cell culture (manufactured by Japan Becton, Dickinson and Company), and then cultured under the conditions of 37° C. and 5% CO2 for 24 hours. 24 hours later, the DMEM culture medium was exchanged to a DMEM culture medium which was adjusted in such a manner that the final concentration of the UHA1028 was 10 μM or the final concentration of the resveratrol was 20 μM, culture was continued in such a manner that the cells were confluent to 100%, and then culture was further carried out for 48 hours. Next, the culture medium was exchanged to a culture medium in which 10 μL of each sample (Final concentration of 20 μM and 10 μM) was added to 2 mL DMEM for differentiation, to which 1% of insulin, 0.5% of dexamethasone, and 0.1% of isobutylmethylxanthine were added, attached to “AdipoInducer Reagent” (Product name, manufactured by Takara Bio, Inc.), and then differentiation induction was carried out under the conditions of 37° C. and 5% CO2 for 48 hours. After the differentiation induction for 48 hours, the culture medium was exchanged to 2 mL of DMEM for maintaining culture to which 1% of insulin was added, and then culture was further carried out for one week for maturing adipocytes. One to which 0.5% of only DMSO which is a solvent was added was used as a control.
After the end of the culture, the total amount RNA was extracted from the cells using an RNA extraction kit (Product name: NucleoSpin (Registered Trademark) RNA II, manufactured by Takara Bio, Inc.) and refined. […]

mature adipocytes [4] = conditions: Japanese Patent Application No. 2011-186054; cited from earlier work
[5] = test system: 3T3-L1 cells (mouse-derived preadipocytes); assay: Expression of indicator protein CO1 (mitochondria marker), Western blot; format: cell-based
Procedure: as §1, with “an” for “an expression of Cidea gene, an increase in the expression amount of Cox7a1 gene expressed in mitochondria, an”, “mitochondria is” for “mitochondria, and an expression enhancement of UCP1 gene, which are hardly observed in white adipocytes, are”, “the CO1 protein.” for “each gene of Cidea, Cox7a1, and UCP1.”
Culture of cells was carried out by the same method as that of Example 2 using the same samples and cells as those in Example 2. […] After the extraction, the protein concentration was measured using a BCA protein assay kit (manufactured by Thermo Fisher Scientific K.K.). […]
After the electrophoresis, the proteins are transferred to PVDF membranes (manufactured by EMD Millipore) by a semidry blotting device “TRANS-BLOT S-D SEMI-DRY TRANSFER CELL” (Product name, manufactured by Bio-Rad Laboratories Inc.), and then blotting was carried out by Immunoblock (manufactured by DS Pharma Biomedical Co., Ltd.). […] The band strength of the detected band was calculated using an image analysis software “Image J”.

[6] = 3T3-L1, UHA1028 10 μM, as compared with resveratrol 20 μM, FIG. 1

COc1cc(C(C)c2c(O)cc(/C=C/c3ccc(O)cc3)cc2O)cc(OC)c1O (centres unmarked) [UHA1028]
adiponectin production promotion action (mature adipocytes [1]): adiponectin production promotion action | sirtuin expression promotion action [2]: sirtuin expression promotion action | differential inhibition action to mature adipocytes of preadipocytes (preadipocytes): differential inhibition action | expression amount of the Cox7a1 (mitochondria marker gene) [3, 6]: significantly increased | expression amount of the UCP1 gene [3, 6]: significantly increased | gene expression amount of the Cidea (marker gene of the brown-like adipocytes) [3, 6]: significantly increased | differentiation induction action to brown-like adipocytes from white adipocytes [3]: notably induced | lipoprotein lipase promotion action (mature adipocytes [4]): lipoprotein lipase promotion action | mitochondria marker protein (CO1) expressed in mature adipocytes ([5]; 3T3-L1, Western blot band strength, as compared with DMSO and resveratrol, FIG. 2): significantly large | amount of mitochondria in the cells ([5]; 3T3-L1, results of Examples 2 and 3, as compared with resveratrol): significantly increased

COc1cc(/C=C/C(=O)O)cc(OC)c1O [sinapic acid, reference compound]
differentiation induction action to brown-like adipocytes from white adipocytes [3]: not observed
